Data on eleven compounds can be found in patent publication US11517570B2 (Kronos Bio, Inc., priority 2013, dated 2022).

The subject of this series is human hepatocytes. The series can be described thus: Human Hepatocyte Stability Assay. It is filed as in vitro ADME. As to conditions: comparison table with known compounds; head prints "(units)", L/hr/kg from the method. Here is the method:
The human […] stability of the compounds as predicted hepatocyte clearance in L/hr/kg was assessed. Compounds to be tested were diluted to 200 μM (4 μl of 10 mM DMSO stock into 196 μl ACN:H2O (50:50). Propranolol was used as a positive control, and buffer only without hepatocytes as 0% control. These were further diluted 4 μl with 891 μl KHB buffer (InVitroGRO catalog number Z99074) to provide 2× dosing solution. To each well of 24 well plate, 250 μl of the 2× dosing solution was added to each well with 250 μl of hepatocytes cells (1×10^6 viable cells/ml per well) or KHB for control samples to achieve a final compound concentration of 1 μM during incubation. The final solvent concentration was 0.01% DMSO and 0.25% ACN. The culture plate was placed on a rocker and incubated at 37° C., 5% CO2. Samples were collected at time 0, 1, 3, and 6 hours. The loss of parent compound was determined using LC-MS methods against a standard curve.
As for `Nc1cncc(-c2cn3ccnc3c(Nc3ccc(N4CCOCC4)cc3)n2)c1` [6-(5-aminopyridin-3-yl)-N-(4-morpholinophenyl)imidazo[1,2-a]pyrazin-8-amine, reference compound], the “Hheps CL” value was determined as 11.3 mL/min/kg.
The same measure for `COc1ccc(Nc2nc(-c3cccc(N)c3)cn3ccnc23)cc1OC` [6-(3-aminophenyl)-N-(3,4-dimethoxyphenyl)imidazo[1,2-a]pyrazin-8-amine, reference compound]: 4 mL/min/kg; for `Nc1cncc(-c2cn3ccnc3c(Nc3ccc(N4CCN(C5COC5)CC4)c(OCCO)c3)n2)n1` [Ex.-5, 2-(5-((6-(6-aminopyrazin-2-yl)imidazo[1,2-a]pyrazin-8-yl)amino)-2-(4-(oxetan-3-yl)piperazin-1-yl)phenoxy)ethanol]: 1.2 mL/min/kg.
As to `Cc1ncc(-c2cn3ccnc3c(Nc3ccc(N4CCN(C5COC5)CC4)c(OCCO)c3)n2)nc1N` [Ex.-7, 2-(5-((6-(6-amino-5-methylpyrazin-2-yl)imidazo[1,2-a]pyrazin-8-yl)amino)-2-(4-(oxetan-3-yl)piperazin-1-yl)phenoxy)ethanol], the “Hheps CL” value stood at 0.83 mL/min/kg.
For `Nc1cncc(-c2cn3ccnc3c(Nc3ccc(N4CCN(C5COC5)CC4)cc3)n2)n1` [Ex.-2, 6-(6-aminopyrazin-2-yl)-N-(4-(4-(oxetan-3-yl)piperazin-1-yl)phenyl)imidazo[1,2-a]pyrazin-8-amine], the “Hheps CL” value is 0.917 mL/min/kg.
Turning to `Nc1cncc(-c2cn3ccnc3c(Nc3ccc(N4CCO[C@@H](CO)C4)cc3)n2)n1` [Ex.-3, (R)-(4-(4-((6-(6-aminopyrazin-2-yl)imidazo[1,2-a]pyrazin-8-yl)amino)phenyl)morpholin-2-yl)methanol], the “Hheps CL” value came out at 1.5 mL/min/kg.
In the case of `Cc1ncc(-c2cn3ccnc3c(Nc3ccc(N4CCOCC4)cc3)n2)cc1N` [6-(5-amino-6-methylpyridin-3-yl)-N-(4-morpholinophenyl)imidazo[1,2-a]pyrazin-8-amine, reference compound], the “Hheps CL” value is 13.3 mL/min/kg.
As for `Nc1cncc(-c2cn3ccnc3c(Nc3ccc(N4CCN(CC(CO)CO)CC4)cc3)n2)n1` [Ex.-6, 2-((4-(4-((6-(6-aminopyrazin-2-yl)imidazo[1,2-a]pyrazin-8-yl)amino)phenyl)piperazin-1-yl)methyl)propane-1,3-diol], the “Hheps CL” value worked out at 1.3 mL/min/kg.
In the case of `Cc1ncc(-c2cn3ccnc3c(Nc3ccc(N4CCN(C5COC5)CC4)cc3)n2)nc1N` [Ex.-1, 6-(6-amino-5-methylpyrazin-2-yl)-N-(4-(4-(oxetan-3-yl)piperazin-1-yl)phenyl)imidazo[1,2-a]pyrazin-8-amine], the “Hheps CL” value turned out to be 2 mL/min/kg.
For `COc1ccc(Nc2nc(-c3ccc(N)nc3)cn3ccnc23)cc1OC` [6-(6-aminopyridin-3-yl)-N-(3,4-dimethoxyphenyl)imidazo[1,2-a]pyrazin-8-amine, reference compound] the value was 15 mL/min/kg; for `Cc1c(-c2cncc(N)n2)nc(Nc2ccc(N3CCN(C4COC4)CC3)cc2)c2nccn12` [Ex.-4, 6-(6-aminopyrazin-2-yl)-5-methyl-N-(4-(4-(oxetan-3-yl)piperazin-1-yl)phenyl)imidazo[1,2-a]pyrazin-8-amine], 1.3 mL/min/kg.
